Measurements reported in paper PMC9081605, “A High-Throughput Toxicity Screen of 42 Per- and Polyfluoroalkyl Substances (PFAS) and Functional Assessment of Migration and Gene Expression in Human Placental Trophoblast Cells” (Frontiers in Toxicology, 2022).
Like-named read-outs stand apart in the source and are kept apart here.

Legend:
JEG-3 cells [1] = experiment: Mitochondrial membrane potential, JC-10 assay (HTTS); format: cell-based, human; settings: for EC50: four-parameter fit, estimates meeting inclusion criteria; for MMP relative to vehicle control (rough binning): after 24 h, in at least one concentration; for MMP ↓, lowest concentration at which the mean response value exceeded the mean control value ± 2*SD (rough binning): 24 h, decrease
Procedure, shortened: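 JEG-3 cells seeded at 2,500 per well were exposed to PFAS for 24 h at 37 °C, with 2.5% methanol vehicle. After a PBS wash, 20 μM JC-10 was added for 1 h at 37 °C. Membrane potential was taken as the green (490/525 nm) to red (540/590 nm) fluorescence ratio.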

JEG-3 cells [2] = experiment: Scratch wound migration assay; format: cell-based, human; settings: for Migration, percent of wound closure: 100 µM, after 72 h; for cellular migration relative to vehicle control: after 24 h of exposure, 25-200 µM; for significant effects on migration observed at 24 h, followed to 72 h: any concentration, by 72 h
Procedure: JEG-3 cells were cultured as described in Cell Culture section, and six PFAS were evaluated across an 8-point linear concentration curve ranging from 25 to 200 µM (25 µM steps): PFOA (335-67-1), GenX (62037-80-3), PFOS (1763-23-1), perfluorooctanesulfonamide (PFOSA, 754-91-6), perfluorooctanamide (PFOAA, 423-54-1), and perfluorononanoic acid (PFNA, 375-95-1). The vehicle control group consisted of 98% media + 2% methanol to match the concentration of methanol in the media at the highest PFAS concentration tested (200 µM). Cadmium chloride (25 µM) was used as a positive control for cytotoxicity ([Brooks and Fry, 2017]). Chemical exposure plate maps were designed so that all experimental conditions were tested in at least technical duplicates per plate. The outer edges of each plate received media alone and were excluded from all analyses to avoid edge effects. JEG-3 cells were counted and seeded at a density of 80,000 cells per well in black-walled, clear bottom 96-well plates (Corning #CLS3603, Millipore Sigma) and allowed to adhere and grow for 36 h. After approximately 36 h, 96-well plates were imaged on the IncuCyte Zoom to obtain cellular confluence measurements prior to chemical dosing (0 h). Media was then removed from wells and replaced with fresh serum-free media containing chemical treatments (serum-free exposure media) using the Viaflo liquid handling device. After 1 h of treatment with serum-free exposure media, plates were again imaged for cellular confluence using the IncuCyte Zoom. Serum-free exposure media was then removed from wells and wells were scratched by dragging a 200 µl pipette tip from top to bottom of each well, changing tips every well. Fresh media containing serum and chemical treatments (exposure media) was added to plates using a liquid handling device and allowed to grow for 72 h, with imaging via the IncuCyte Zoom every 6 h.
Plate well bottom images were evaluated using automated cell masking as described in Proliferation section. Cell migration was calculated as the change in cellular confluence from the baseline measurement obtained immediately post-scratch to each subsequent time point (24, 48, and 72 h, post-scratch).
Raw migration assay data exported from IncuCyte software were analyzed using GraphPad Prism 8.0 (GraphPad Software, San Diego, CA)). Prior to analysis, a minimum starting confluence value of 70% was set to ensure comparisons between samples were not skewed. Images with a starting confluence of less than 70% were excluded from analysis. Statistical analysis was performed using multiple unpaired t-tests to compare treated groups to the vehicle control followed by post hoc correction for multiple tests using the Bonferroni-Dunn method. Concentration-response analysis to determine migration assay EC50s was attempted but was not able to be modeled due to the non-linear nature of the concentration-response relationship for this endpoint.

[3] = Homo sapiens, JEG-3, 24 h, read-out: MMP EC50 ± SD, JEG-3 cells, 24 h exposure
[4] = JEG-3 cells, 24 h exposure, read-out: MMP EC50 ± SD

## O=C(O)C(F)(F)C(F)(F)C(F)(F)C(F)(F)C(F)(F)C(F)(F)C(F)(F)F [Perfluorooctanoic acid]
JEG-3 cells [1]; [3]
  EC50: 360 ± 18 µM
JEG-3 cells [1]; Homo sapiens, JEG-3, 24 h, read-out: MMP ↓, lowest concentration at which the mean response value exceeded the mean control value ± 2*SD (rough binning)
  minimal effective concentration: 450 µM
JEG-3 cells [1]
  MMP relative to vehicle control (rough binning): reduced MMP
JEG-3 cells [2]
  Migration, percent of wound closure: 72%
  cellular migration relative to vehicle control: significantly reduced
  significant effects on migration observed at 24 h, followed to 72 h: attenuated

## O=C(O)C(F)(F)C(F)(F)C(F)(F)C(F)(F)C(F)(F)C(F)(F)C(F)(F)C(F)(F)F [Perfluorononanoic acid]
JEG-3 cells [1]; JEG-3 cells
  MMP ↓, lowest concentration at which the mean response value exceeded the mean control value ± 2*SD (rough binning): 300 µM
JEG-3 cells [1]; [4]
  EC50: 305 ± 13.6 µM
JEG-3 cells [1]
  MMP relative to vehicle control (rough binning): reduced MMP
JEG-3 cells [2]
  cellular migration relative to vehicle control: significantly reduced
  significant effects on migration observed at 24 h, followed to 72 h: attenuated

## O=S(=O)(O)C(F)(F)C(F)(F)C(F)(F)C(F)(F)C(F)(F)C(F)(F)C(F)(F)C(F)(F)F [Perfluorooctanesulfonic acid]
JEG-3 cells [1]; JEG-3 cells
  MMP ↓, lowest concentration at which the mean response value exceeded the mean control value ± 2*SD (rough binning): 350 µM
JEG-3 cells [1]; JEG-3 cells, 24 h exposure, listed as PFOS, read-out: MMP EC50 ± SD
  EC50: 353 µM
JEG-3 cells [1]; [4]
  EC50: 353 ± 6.7 µM
JEG-3 cells [1]
  MMP relative to vehicle control (rough binning): reduced MMP
JEG-3 cells [2]
  Migration, percent of wound closure: 57%
  cellular migration relative to vehicle control: significantly reduced

## N.O=C(O)C(F)(OC(F)(F)C(F)(F)C(F)(F)F)C(F)(F)F (stereo not drawn) [Ammonium perfluoro-2-methyl-3-oxahexanoate]
JEG-3 cells [2]
  Migration, percent of wound closure: 79%
  cellular migration relative to vehicle control: significantly reduced

## NS(=O)(=O)C(F)(F)C(F)(F)C(F)(F)C(F)(F)C(F)(F)C(F)(F)C(F)(F)C(F)(F)F [Perfluorooctanesulfonamide]
JEG-3 cells [1]; [3]
  EC50: 227 ± 370 µM
JEG-3 cells [2]
  cellular migration relative to vehicle control: significantly reduced
